Four molecules from ChEMBL document CHEMBL1147070 (Drug Metab Dispos, 2007) can be followed below.

What all share (assay type): cell-based
One data set concerns the target T1, URAT1 (SLC22A12) (Homo sapiens, UniProt Q96S37).
T1 sequence (Q96S37 whole entry): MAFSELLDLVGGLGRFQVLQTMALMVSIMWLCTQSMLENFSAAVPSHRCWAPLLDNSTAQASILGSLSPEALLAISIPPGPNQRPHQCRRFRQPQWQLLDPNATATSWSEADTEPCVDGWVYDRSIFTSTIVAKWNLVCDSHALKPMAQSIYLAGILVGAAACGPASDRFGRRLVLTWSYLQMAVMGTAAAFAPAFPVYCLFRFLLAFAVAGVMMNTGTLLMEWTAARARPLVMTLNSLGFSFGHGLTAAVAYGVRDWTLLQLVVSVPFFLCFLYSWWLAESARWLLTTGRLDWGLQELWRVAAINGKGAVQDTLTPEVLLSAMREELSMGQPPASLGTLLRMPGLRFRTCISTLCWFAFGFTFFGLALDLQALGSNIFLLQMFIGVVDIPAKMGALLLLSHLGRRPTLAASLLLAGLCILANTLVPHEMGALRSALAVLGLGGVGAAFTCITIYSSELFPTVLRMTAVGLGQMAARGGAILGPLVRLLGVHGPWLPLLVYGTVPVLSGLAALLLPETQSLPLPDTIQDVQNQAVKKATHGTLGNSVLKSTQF
Put plainly: Inhibition of human URAT1-mediated urate uptake in HEK293 cells at 2 uM. The conditions noted are these: HEK293 cells expressing human URAT1, probe urate.

Data set [1] addresses T2, Solute carrier family 22 member 12 (Homo sapiens, UniProt Q96S37).
T2 sequence (Q96S37 whole entry): T1 sequence (Q96S37 whole entry)
Put plainly: Inhibition of human URAT1-mediated urate uptake in HEK293 cells.

The target in data set [2] is T2, Solute carrier family 22 member 12. Kind of data set: Inhibition of human URAT1-mediated urate uptake in HEK293 cells by competitive inhibition assay.

By inhibition is commonly meant the drop in the measured response relative to a control, in per cent. Read a high inhibition as strong suppression. Take `CCc1oc2ccccc2c1C(=O)c1cc(Br)c(O)c(Br)c1` [BENZBROMARONE]: 2 µM produced 70% inhibition against URAT1 (SLC22A12).
In the case of `CCCN(CCC)S(=O)(=O)c1ccc(C(=O)O)cc1` [PROBENECID], on URAT1 (SLC22A12), the inhibition at 2 µM came out at 30%.
Broadly, the IC50 is the concentration that gives 50% inhibition. A higher IC50 goes with a need for much substance. As a reminder, the Ki is a measure of affinity in units of concentration, obtained from inhibition or displacement. Lower therefore signals higher affinity. `O=c1c(O)c(-c2ccc(O)cc2O)oc2cc(O)cc(O)c12` [MORIN] had an IC50 in data set [1] of 2 µM. In data set [2], affinity was put at a Ki of 5.74 µM.
For the molecule `O=C1C(CC[S+]([O-])c2ccccc2)C(=O)N(c2ccccc2)N1c1ccccc1` (stereo not given) [SULFINPYRAZONE], the IC50 in data set [1] was 100 µM.
